According to patent US20150105349A1, “(R)-(-)-1,2-propanediol compositions and methods” (priority 2013, published 2015):

Legend:
philtrum skin = philtrum skin cooling bioassay (subjective coolness rating 0-3); format: in vivo, human; conditions: 49% distilled water, 1% ethanol
Excerpt: The term “alcoholic solvent” refers to a chemical with one to four carbons with at least one hydroxyl group attached to a carbon atom. A reliable place for topical application is the skin above the upper lip (above the vermilion border of the lips), on the philtrum, lateral to the philtrum until the nasolabial folds, and on the lower nostrils (subnasale). This part of the face is known to be densely innervated with cold receptors, second only to the surfaces of the eyeball and anogenitalia. Tingling, cool and cold sensations from the skin may be experienced and rated for time of onset and intensity.
The intervals for recording sensations are 5 to 10 minutes, until two successive zeros are obtained. The results (shown in the Figures) are averaged values of 4 to 6 separate trials in the same individual. The data are plotted using SigmaPlot (Systat Software, Point Richmond, Calif.) and a smoothing function with a negative exponential was used for analysis and statistical fit of the results. The onset of drug action is taken as the time to reach 2 units of coolness intensity, and offset of drug action is the time when coolness intensity drops below 2, after previously surpassing 2 units. […] The duration of cooling action is defined as the offset time minus the onset time and the primary index of effect. As described in Examples, the test compounds were tested at 2 to 10 mg/mL of vehicle.
For assays on the skin, the cooling agent(s) was dissolved in the alcoholic solvent to yield a 2, 2.5, 3, 5 or 10 mg/mL solution. Using a cotton-tipped applicator (e.g. Q-tips®) 0.10 to 0.25 mL of the test solution was applied to the skin above the upper lip, on the philtrum, and lateral to the philtrum up to the nasolabial folds, and the onset and duration of cooling sensations noted. […] The interval for recording sensations was at 5 to 10 minute intervals, until at least two successive zeros were obtained. The results were averaged values of 3 to 6 separate trials in the same individual. The “onset” is the time taken to reach a coolness intensity value of 2. […] The “off-set” is when the coolness intensity drops below 2, and the duration is the time of off-set minus the time of onset. The area under the curve (AUC) gives an estimate of the intensity and duration of drug action and can be obtained from the plotted data using SigmaPlot (Systat Software, Point Richmond, Calif.). The AUC unit is the product of cooling intensity x min.

[1] = target: T1, cloned hTRPM8 channel (human TRPM8 gene, expressed in CHO cells) (Homo sapiens, UniProt Q7Z2W7); assay: agonist activity on cloned hTRPM8 channel, Fluo-8 calcium kit, FLIPR; format: cell-based; conditions: TRPM8 receptor assay
T1 construct: host or cells: CHO cells
T1 sequence (Q7Z2W7 whole entry): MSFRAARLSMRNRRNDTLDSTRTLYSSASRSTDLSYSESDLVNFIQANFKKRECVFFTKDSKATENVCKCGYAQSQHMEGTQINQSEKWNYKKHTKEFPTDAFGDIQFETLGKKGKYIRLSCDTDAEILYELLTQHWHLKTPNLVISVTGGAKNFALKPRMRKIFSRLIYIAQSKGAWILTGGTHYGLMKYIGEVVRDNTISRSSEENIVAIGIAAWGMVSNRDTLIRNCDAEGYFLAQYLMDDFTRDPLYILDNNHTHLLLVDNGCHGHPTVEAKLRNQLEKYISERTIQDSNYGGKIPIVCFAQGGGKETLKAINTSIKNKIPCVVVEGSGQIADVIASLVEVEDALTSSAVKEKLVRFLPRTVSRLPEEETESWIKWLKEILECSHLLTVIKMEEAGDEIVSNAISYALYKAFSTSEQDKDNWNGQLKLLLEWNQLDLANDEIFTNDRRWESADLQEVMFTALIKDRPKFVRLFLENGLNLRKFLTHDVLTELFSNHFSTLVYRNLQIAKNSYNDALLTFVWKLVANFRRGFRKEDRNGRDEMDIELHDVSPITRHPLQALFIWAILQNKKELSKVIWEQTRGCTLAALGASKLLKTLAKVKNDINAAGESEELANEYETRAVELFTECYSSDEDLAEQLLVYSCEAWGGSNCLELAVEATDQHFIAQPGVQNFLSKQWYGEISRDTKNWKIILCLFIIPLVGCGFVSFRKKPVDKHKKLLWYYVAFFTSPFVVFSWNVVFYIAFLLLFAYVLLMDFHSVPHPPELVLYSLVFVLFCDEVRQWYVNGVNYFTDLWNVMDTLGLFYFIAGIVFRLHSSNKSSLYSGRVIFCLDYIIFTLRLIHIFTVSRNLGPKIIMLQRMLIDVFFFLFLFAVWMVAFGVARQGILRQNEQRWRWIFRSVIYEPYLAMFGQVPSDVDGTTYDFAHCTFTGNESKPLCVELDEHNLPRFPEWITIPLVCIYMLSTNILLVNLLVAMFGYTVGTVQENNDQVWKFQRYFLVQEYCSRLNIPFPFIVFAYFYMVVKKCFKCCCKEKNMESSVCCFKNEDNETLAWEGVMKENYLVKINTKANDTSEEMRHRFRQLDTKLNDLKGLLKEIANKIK
Experimental: The in vitro effects of test articles were evaluated on cloned hTRPM8 channel (encoded by the human TRPM8 gene, expressed in CHO cells) using a Fluo-8 calcium kit and a Fluorescence Imaging Plate Reader (FLIPR^TETRA™) instrument. […] The total number of carbons in these trialkylphosphine oxides ranged from 12 to 15.
To further examine solvent-receptor interactions, stock solutions of 1-7 [1-(Diisopropyl-phosphinoyl)-heptane] were prepared in dimethyl sulfoxide (DMSO) or DMSO containing 10% or 30% by volume of the three isomers of 1,2-propanediol, (R/S-PD, R-PD, and S-PD) and stored frozen. Six dose levels were tested ranging from 0.003 to 3 μM. Ten μl of the test article solution were added to 40 μl of cells in HBPS in glass-lined 384-well compound plates, and placed into the FLIPR instrument for the fluorescence readout (Molecular Devices Corporation, Union City, Calif.).

[2] = system: itchy scalp, seborrheic dermatitis; assay: topical application to itchy scalp in seborrheic dermatitis, one subject; format: in vivo, human; conditions: 10 mg/mL in 12% (S)-1,2-propanediol, 37% (R)-1,2-propanediol, 1% ethanol, 50% water
Experimental: A subject with severe seborrheic dermatitis complained of an itchy scalp which was not resolved with anti-dandruff shampoos. […] The delivery was made using a 20 mL reservoir bottle capped with a Yorker spout. They remarked that routine application of the solution on an “as needed basis” stopped the itch for 6 to 8 hours and repeat applications for one week allowed their scalp to feel refreshed and normal. They proposed to pay for a continued supply of the solution.

[3] = system: periorbital skin and skin above the cheekbone; assay: cosmetic wipe over periorbital skin and skin above the cheekbone, six female subjects; format: in vivo, human; conditions: 10 mg/mL in water (50%), 10% (S)-, 40% (R)-1,2-propanediol
Experimental: Six female subjects working at a cosmetics company volunteered to try topical applications of 1-7 and/or 1-8, formulated at 10 mg/mL in water (50%) and 10% (S)-1,2-propanediol, 40% (R)-1,2-propanediol wt/wt. The liquid was put on a cotton square and wiped over the periorbital skin and the skin above the cheekbone. All the subjects remarked on a refreshing coolness on the skin at the sites of application within 2 min after application. There was a “wow” effect, that was considered pleasant and stimulating. […] Four of the six subjects said they felt more “awake and energetic.”

Potency Relative to I-menthol [1]: 5.4
EC50 ([1]; read-out: EC50 μM (95% C, L.)): 0.7 µM
Structure (SMILES): CCCCCCCCP(=O)(C(C)C)C(C)C [1-8]
Ratio of AUC 75/25% R/S to 25/75% R/S (fold increase in cooling activity) (philtrum skin): 1.5
duration for which itch was stopped [2]: 6 to 8 h
irritation or redness on the skin after applications [3]: no irritation or redness
time facial skin felt cool and dry after application ([3]; all subjects): at least one hour
